Legend:
Conditions in all cases: Table 1
[1] = tested on: S. pneumoniae ATCC 6301; experiment: MIC determination, S. pneumoniae ATCC 6301; format: cell-based, Streptococcus pneumoniae
[2] = tested on: E. faecalis ATCC 29212; experiment: MIC determination, E. faecalis ATCC 29212; format: cell-based, Enterococcus faecalis
[3] = tested on: M. catarrhalis ATCC 25238; experiment: MIC determination, M. catarrhalis ATCC 25238; format: cell-based
[4] = tested on: S. aureus ATCC 29213; experiment: MIC determination, S. aureus ATCC 29213; format: cell-based, Staphylococcus aureus
[5] = tested on: S. epidermidis ATCC 12228; experiment: MIC determination, S. epidermidis ATCC 12228; format: cell-based, Staphylococcus epidermidis
[6] = tested on: E. faecium CT-26; experiment: MIC determination, E. faecium CT-26; format: cell-based, Enterococcus faecium

SMILES	MIC S. pneumoniae ATCC 6301 [1]	MIC E. faecalis ATCC 29212 [2]	MIC M. catarrhalis ATCC 25238 [3]	MIC S. aureus ATCC 29213 [4]	MIC S. epidermidis ATCC 12228 [5]	MIC E. faecium CT-26 [6]
Oc1cccc2cccnc12 [Compound 56, 8-hydroxyquinoline]	2 micrograms per ml	8 micrograms per ml	4 micrograms per ml	2 micrograms per ml	2 micrograms per ml	4 micrograms per ml
Oc1ccc(F)c2cccnc12 [Compound 57]	4 micrograms per ml	16 micrograms per ml	1 micrograms per ml	2 micrograms per ml	2 micrograms per ml	4 micrograms per ml
Oc1ccc(F)c2cccnc12 [Compound 58]	2 micrograms per ml	8 micrograms per ml	0.5 micrograms per ml	2 micrograms per ml	2 micrograms per ml	4 micrograms per ml
Oc1cccc2cccnc12 [Compound 59, 8-hydroxyquinoline]	1 micrograms per ml	8 micrograms per ml	2 micrograms per ml	2 micrograms per ml	1 micrograms per ml	4 micrograms per ml
Oc1cccc2cccnc12 [Compound 60, 8-hydroxyquinoline]	2 micrograms per ml	8 micrograms per ml	2 micrograms per ml	2 micrograms per ml	1 micrograms per ml	4 micrograms per ml
Oc1cccc2cccnc12 [Compound 61, 8-hydroxyquinoline]	1 micrograms per ml	16 micrograms per ml	2 micrograms per ml	2 micrograms per ml	1 micrograms per ml	2 micrograms per ml
Oc1ccc(F)c2cccnc12 [Compound 62]	2 micrograms per ml	8 micrograms per ml	2 micrograms per ml	2 micrograms per ml	2 micrograms per ml	4 micrograms per ml
Oc1cccc2cccnc12 [Compound 63, 8-hydroxyquinoline]	2 micrograms per ml	8 micrograms per ml	1 micrograms per ml	2 micrograms per ml	1 micrograms per ml	4 micrograms per ml
Oc1ccc(F)c2cccnc12 [Compound 64]	4 micrograms per ml	8 micrograms per ml	1 micrograms per ml	2 micrograms per ml	2 micrograms per ml	8 micrograms per ml
Cc1ccnc2c(O)cccc12 [Compound 66]	1 micrograms per ml	64 micrograms per ml	0.5 micrograms per ml	2 micrograms per ml	1 micrograms per ml	4 micrograms per ml
Cc1ccnc2c(O)cccc12 [Compound 67]	1 micrograms per ml	64 micrograms per ml	0.5 micrograms per ml	2 micrograms per ml	1 micrograms per ml	4 micrograms per ml
Oc1cccc2cccnc12 [Compound 68, 8-hydroxyquinoline]	16 micrograms per ml	32 micrograms per ml	0.12 micrograms per ml	2 micrograms per ml	2 micrograms per ml	4 micrograms per ml
Oc1cccc2cccnc12 [Compound 69, 8-hydroxyquinoline]	2 micrograms per ml	64 micrograms per ml	1 micrograms per ml	2 micrograms per ml	1 micrograms per ml	4 micrograms per ml
Fc1cccc(B(Oc2cccc3cccnc23)C2CC2)c1 [Compound 70, (3-Fluorophenyl)cyclopropylborinic acid 8-hydroxyquinoline ester]	1 micrograms per ml	64 micrograms per ml	0.5 micrograms per ml	2 micrograms per ml	1 micrograms per ml	2 micrograms per ml
Oc1c(Cl)cc(Cl)c2cccnc12 [Compound 71]	8 micrograms per ml	64 micrograms per ml	0.12 micrograms per ml	2 micrograms per ml	2 micrograms per ml	4 micrograms per ml
Oc1cccc2cccnc12 [Compound 73, 8-hydroxyquinoline]	2 micrograms per ml	64 micrograms per ml	0.25 micrograms per ml	2 micrograms per ml	1 micrograms per ml	8 micrograms per ml
Oc1cccc2cccnc12 [Compound 74, 8-hydroxyquinoline]	2 micrograms per ml	32 micrograms per ml	1 micrograms per ml	2 micrograms per ml	1 micrograms per ml	2 micrograms per ml
Oc1cccc2cccnc12 [Compound 77, 8-hydroxyquinoline]	1 micrograms per ml	8 micrograms per ml	2 micrograms per ml	2 micrograms per ml	1 micrograms per ml	4 micrograms per ml
Oc1cccc2cccnc12 [Compound 78, 8-hydroxyquinoline]	1 micrograms per ml	8 micrograms per ml	2 micrograms per ml	2 micrograms per ml	1 micrograms per ml	2 micrograms per ml
Oc1cccc2cccnc12 [Compound 79, 8-hydroxyquinoline]	2 micrograms per ml	8 micrograms per ml	2 micrograms per ml	2 micrograms per ml	2 micrograms per ml	4 micrograms per ml
Oc1cccc2cccnc12 [Compound 80, 8-hydroxyquinoline]	2 micrograms per ml	4 micrograms per ml	2 micrograms per ml	2 micrograms per ml	1 micrograms per ml	4 micrograms per ml
Oc1cccc2cccnc12 [Compound 81, 8-hydroxyquinoline]	2 micrograms per ml	8 micrograms per ml	2 micrograms per ml	2 micrograms per ml	1 micrograms per ml	4 micrograms per ml

— US7390806B2, “Antibiotics containing borinic acid complexes and methods of use” (Anacor Pharmaceuticals, Inc., priority 2002, dated 2008)
